In ChEMBL document CHEMBL1201862, “PubChem BioAssay data set” (2004):
Activity calls are given as the source filed them.

What was measured:
[1] = target: T1, Short transient receptor potential channel 4 (Mus musculus, UniProt Q9QUQ5); test: calcium entry via TRPC4 opening agents – cell-based, HEK293 TRPC4/mu-opioid, Fluo-4 calcium, dose response (AID 434937); type: functional
T1 sequence (Q9QUQ5 whole entry): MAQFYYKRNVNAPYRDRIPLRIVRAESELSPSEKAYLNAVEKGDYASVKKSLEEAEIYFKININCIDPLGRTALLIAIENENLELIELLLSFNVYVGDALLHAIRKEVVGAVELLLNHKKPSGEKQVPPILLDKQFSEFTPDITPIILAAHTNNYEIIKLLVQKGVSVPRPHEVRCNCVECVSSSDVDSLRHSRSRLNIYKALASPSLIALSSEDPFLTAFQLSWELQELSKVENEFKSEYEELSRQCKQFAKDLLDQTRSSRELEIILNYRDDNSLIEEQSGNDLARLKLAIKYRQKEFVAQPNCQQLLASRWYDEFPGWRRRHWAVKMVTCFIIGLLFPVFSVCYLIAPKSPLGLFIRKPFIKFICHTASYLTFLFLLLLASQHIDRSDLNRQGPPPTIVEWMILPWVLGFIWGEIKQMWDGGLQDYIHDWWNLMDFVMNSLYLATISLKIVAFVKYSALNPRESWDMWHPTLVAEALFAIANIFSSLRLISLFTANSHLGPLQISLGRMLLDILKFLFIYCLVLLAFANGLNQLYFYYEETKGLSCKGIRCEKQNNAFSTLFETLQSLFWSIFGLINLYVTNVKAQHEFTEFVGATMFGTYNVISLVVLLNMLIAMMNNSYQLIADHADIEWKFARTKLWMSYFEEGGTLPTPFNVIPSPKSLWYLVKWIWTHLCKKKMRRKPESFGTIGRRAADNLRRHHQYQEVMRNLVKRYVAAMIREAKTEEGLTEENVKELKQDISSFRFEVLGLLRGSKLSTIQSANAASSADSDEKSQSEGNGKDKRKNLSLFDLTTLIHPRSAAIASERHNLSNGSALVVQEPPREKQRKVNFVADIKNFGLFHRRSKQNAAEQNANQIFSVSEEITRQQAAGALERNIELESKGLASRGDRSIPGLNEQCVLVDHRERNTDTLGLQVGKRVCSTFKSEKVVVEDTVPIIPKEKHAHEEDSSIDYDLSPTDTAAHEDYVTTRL

[2] = target: Luciferin 4-monooxygenase (Photinus pyralis, UniProt P08659); test: inhibition of purified Photinus pyralis luciferase – biochemical, luminescence, dose response (AID 1891)
[3] = Luminescence Cell-Based Dose Confirmation HTS to Identify Inhibitors of Platelet Dense Granule Release. [Related pubchem assays: 1663 (Primary HTS), 1678 (Summary of Project)]; type: functional
[4] = target: T1, Short transient receptor potential channel 4; test: block of DAMGO-driven TRPC4 calcium entry – cell-based, HEK293 TRPC4/mu-opioid, Fluo-4 calcium, dose response (AID 434942); type: functional;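 also: potency of inhibitors blocking the TRPC4 calcium response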
[5] = tested on: H4; test: Luminescence Cell-Based Dose Response HTS to Identify Activators of 5'UTR Stem-Loop Driven Prion Protein mRNA Translation in H4 Neuroglioblastoma Cells. [Related pubchem assays: 1829 (Project Summary), 1814 (Primary HTS)]; type: functional; conditions: Homo sapiens
[6] = Luminescence Cell-Based Dose Confirmation HTS to Identify Activators of 5'UTR Stem-Loop Driven Alpha-Synuclein mRNA Translation in H4 Neuroglioblastoma Cells. [Related pubchem assays: 1829 (Project Summary), 1814 (Primary HTS)]; type: functional
[7] = Luminescence Cell-Based Dose Response HTS to Identify Activators of Luciferase Translation or Activity in H4 […] Cells. [Related pubchem assays: 1829 (Project Summary), 1814 (Primary HTS)]; type: functional
[8] = tested on: H9c2; test: cells; type: functional, cell-based; conditions: Rattus norvegicus, H9c2, Myocardium;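 also: confirmatory concentration-response retest of ultra-high-throughput screening hits for modulation of myocardial damage; cell death induced by hydrogen peroxide oxidative stress; compound pretreatment for 60 min then peroxide exposure for 2 h; potency is for protecting the cells against peroxide damage rather than for killing them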
[9] = cAMP pathway inhibition in counterscreen cell line – TR-FRET cAMP detection, counter-screen for MC4R biased antagonist project, dose response (AID 602305); type: functional, cell-based;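 also: U2OS cells stimulated with forskolin near its EC80 as the cAMP inducer; potency is for inhibition of forskolin-stimulated cAMP signaling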
[10] = target: Melanocortin receptor 4 (Homo sapiens, UniProt P32245); test: inhibitors of MC4R cAMP signaling – cell-based, TR-FRET, biased antagonists, dose response (AID 602298); type: functional;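 also: antagonist potency against agonist-stimulated cAMP production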
[11] = target: Cytochrome P450 2C9 (Homo sapiens, UniProt P11712)
[12] = target: T2, Corticotropin-releasing factor receptor 2/Corticotropin-releasing factor-binding protein (Homo sapiens, UniProt P24387+Q13324); test: activators of CRF receptor 2 with binding protein – uHTS hits, confirmation (AID 602473); type: functional; conditions: read-out: EC50_Mean
T2 sequence (Q13324 whole entry): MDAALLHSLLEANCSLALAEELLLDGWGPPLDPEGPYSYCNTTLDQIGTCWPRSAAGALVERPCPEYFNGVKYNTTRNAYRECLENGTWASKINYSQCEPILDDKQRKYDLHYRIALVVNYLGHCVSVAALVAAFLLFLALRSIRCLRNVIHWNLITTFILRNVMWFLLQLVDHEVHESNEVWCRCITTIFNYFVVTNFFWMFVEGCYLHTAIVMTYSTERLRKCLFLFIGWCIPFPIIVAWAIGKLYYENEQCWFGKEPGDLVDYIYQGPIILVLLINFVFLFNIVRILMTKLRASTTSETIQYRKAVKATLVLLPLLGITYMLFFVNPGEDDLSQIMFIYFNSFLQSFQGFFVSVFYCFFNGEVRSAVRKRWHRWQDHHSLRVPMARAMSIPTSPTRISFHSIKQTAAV
T2 sequence (P24387 whole entry): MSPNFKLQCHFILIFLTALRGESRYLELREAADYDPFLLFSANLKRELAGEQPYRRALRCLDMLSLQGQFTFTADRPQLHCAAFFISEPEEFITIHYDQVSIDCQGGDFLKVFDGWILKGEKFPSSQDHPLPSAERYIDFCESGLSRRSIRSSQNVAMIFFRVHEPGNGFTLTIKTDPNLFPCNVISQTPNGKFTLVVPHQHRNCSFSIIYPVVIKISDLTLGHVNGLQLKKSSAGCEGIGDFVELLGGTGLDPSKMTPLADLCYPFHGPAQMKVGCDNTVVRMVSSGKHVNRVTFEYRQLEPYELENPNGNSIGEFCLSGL

[13] = target: T2, Corticotropin-releasing factor receptor 2/Corticotropin-releasing factor-binding protein; test: Dose Response confirmation of uHTS hits for small molecule antagonists of the CRF-binding protein and CRF-R2 receptor complex.; type: functional; conditions: read-out: IC50_Mean
[14] = Trypanosoma cruzi growth suppression in host cells – NIH3T3 host cells, beta-gal luminescence, confirmation (AID 2044); type: functional, cell-based;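 also: intracellular parasites grown in NIH/3T3 mouse fibroblasts as host cells; luminescent beta-galactosidase reporter signal from transgenic T. cruzi replicating inside host cells; inhibitors lower the luminescence signal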
[15] = NIH3T3 cell viability loss – ATP luminescence, mouse fibroblasts, counter-screen, dose response (AID 2010); type: functional, cell-based;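 also: cells exposed to compound for about 90 hours before reading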
[16] = tested on: Streptococcus sp. 'group A'; test: Streptococcus pyogenes SK(-)GAS viability under kanamycin – luminescence, BacTiterGlo, confirmation, counter-screen for streptokinase expression inhibitor project, dose response (AID 1900); type: functional, organism-based
[17] = Luminescence Cell-Based Dose Retest to Confirm Inhibitors of Cancer Stem Cells. [Related pubchem assays (depositor defined):AID2717, AID2721]; type: functional; conditions: Homo sapiens
[18] = target: Cytochrome P450 2D6 (Homo sapiens, UniProt P10635);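 also: CYP2D6 member of a cytochrome P450 panel assay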
[19] = reduction of Shn3 3'UTR-driven luciferase in osteoblasts – cell-based, Clone20 osteoblasts, firefly luciferase, cherry-picked, dose response (AID 624132); type: functional;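 also: firefly luciferase luminescence from reporter carrying the Shn3 3'UTR in osteoblasts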
[20] = tested on: Streptococcus; test: GAS UMAA2166 growth inhibition – luminescence, BacTiterGlo, counter-screen for streptokinase expression inhibitor project, dose response (AID 1915); type: functional, organism-based; conditions: read-out: EC50;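 also: potency for reduction of bacterial viability or growth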
[21] = target: Paired box protein Pax-8 (Homo sapiens, UniProt Q06710); test: PAX8 transcriptional activity inhibition in RMG-I – RMG-I cells, luciferase, cherry-pick, dose response (AID 687027); type: functional, cell-based;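 also: luciferase reporter driven by Pax8 target thyroperoxidase promoter measured by SteadyGlo luminescence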
[22] = loss of viability in HepG2 cells – cell-based, CellTiter-Glo, cherry-picked, cytotoxicity control for Shn3 inhibitor project, dose response (AID 624134); type: functional
[23] = target: T3, Streptokinase A (Streptococcus pyogenes serotype M1, UniProt P10520); test: viability-normalized secreted streptokinase activity reduction – plasminogen activation absorbance, OD405, dose response (AID 1914); type: functional, Streptococcus pyogenes M1 GAS;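 also: secreted streptokinase activity via plasminogen activation per viability signal from cell pellet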
T3 sequence (P10520 whole entry): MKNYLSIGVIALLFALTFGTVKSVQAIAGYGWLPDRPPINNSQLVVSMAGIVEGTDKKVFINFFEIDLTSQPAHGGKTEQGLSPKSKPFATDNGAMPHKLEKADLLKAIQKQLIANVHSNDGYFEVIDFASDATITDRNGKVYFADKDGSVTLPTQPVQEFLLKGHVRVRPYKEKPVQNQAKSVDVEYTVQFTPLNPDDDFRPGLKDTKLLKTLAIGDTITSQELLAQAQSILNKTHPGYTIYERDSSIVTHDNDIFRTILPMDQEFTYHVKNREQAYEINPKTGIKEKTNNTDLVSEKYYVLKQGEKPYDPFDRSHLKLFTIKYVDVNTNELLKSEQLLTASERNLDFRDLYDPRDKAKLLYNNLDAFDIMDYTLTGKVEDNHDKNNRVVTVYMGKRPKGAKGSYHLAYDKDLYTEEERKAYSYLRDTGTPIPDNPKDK

Sequence of Melanocortin receptor 4 (P32245 whole entry): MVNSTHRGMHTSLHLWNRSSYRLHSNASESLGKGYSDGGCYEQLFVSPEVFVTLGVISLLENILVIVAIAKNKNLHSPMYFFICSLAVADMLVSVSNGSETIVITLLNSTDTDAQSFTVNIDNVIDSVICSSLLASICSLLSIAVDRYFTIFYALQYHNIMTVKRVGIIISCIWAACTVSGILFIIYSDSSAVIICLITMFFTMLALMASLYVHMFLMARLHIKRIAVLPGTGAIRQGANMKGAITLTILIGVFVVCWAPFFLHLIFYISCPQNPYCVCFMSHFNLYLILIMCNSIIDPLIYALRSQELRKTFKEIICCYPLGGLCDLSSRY
Sequence of Cytochrome P450 2C9 (P11712 whole entry): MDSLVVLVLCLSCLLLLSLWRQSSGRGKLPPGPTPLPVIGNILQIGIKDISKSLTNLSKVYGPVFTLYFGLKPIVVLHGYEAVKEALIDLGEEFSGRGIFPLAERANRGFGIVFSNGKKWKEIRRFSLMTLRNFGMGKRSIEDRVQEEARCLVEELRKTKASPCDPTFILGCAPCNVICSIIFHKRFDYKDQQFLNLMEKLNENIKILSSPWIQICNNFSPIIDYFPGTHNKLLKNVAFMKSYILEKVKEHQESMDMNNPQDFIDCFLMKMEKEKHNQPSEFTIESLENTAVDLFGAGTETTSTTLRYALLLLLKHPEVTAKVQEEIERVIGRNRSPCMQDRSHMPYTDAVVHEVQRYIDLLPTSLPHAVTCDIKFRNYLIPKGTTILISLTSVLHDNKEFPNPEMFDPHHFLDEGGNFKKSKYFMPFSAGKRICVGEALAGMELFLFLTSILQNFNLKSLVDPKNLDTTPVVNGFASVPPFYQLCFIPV
Sequence of Cytochrome P450 2D6 (P10635 whole entry): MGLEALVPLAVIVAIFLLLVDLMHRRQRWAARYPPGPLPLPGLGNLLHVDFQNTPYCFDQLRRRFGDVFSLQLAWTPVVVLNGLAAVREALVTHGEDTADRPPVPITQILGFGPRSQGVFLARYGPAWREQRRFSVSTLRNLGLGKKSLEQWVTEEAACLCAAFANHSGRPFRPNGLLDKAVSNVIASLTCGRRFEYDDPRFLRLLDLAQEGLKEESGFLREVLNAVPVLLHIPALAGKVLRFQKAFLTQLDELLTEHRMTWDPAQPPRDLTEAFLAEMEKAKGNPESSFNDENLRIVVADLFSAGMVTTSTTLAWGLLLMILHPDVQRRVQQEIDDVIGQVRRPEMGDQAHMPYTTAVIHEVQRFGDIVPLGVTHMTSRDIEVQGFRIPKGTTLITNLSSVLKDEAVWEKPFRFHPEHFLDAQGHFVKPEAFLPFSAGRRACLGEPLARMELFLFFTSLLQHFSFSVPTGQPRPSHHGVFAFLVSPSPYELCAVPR
Sequence of Luciferin 4-monooxygenase (P08659 whole entry): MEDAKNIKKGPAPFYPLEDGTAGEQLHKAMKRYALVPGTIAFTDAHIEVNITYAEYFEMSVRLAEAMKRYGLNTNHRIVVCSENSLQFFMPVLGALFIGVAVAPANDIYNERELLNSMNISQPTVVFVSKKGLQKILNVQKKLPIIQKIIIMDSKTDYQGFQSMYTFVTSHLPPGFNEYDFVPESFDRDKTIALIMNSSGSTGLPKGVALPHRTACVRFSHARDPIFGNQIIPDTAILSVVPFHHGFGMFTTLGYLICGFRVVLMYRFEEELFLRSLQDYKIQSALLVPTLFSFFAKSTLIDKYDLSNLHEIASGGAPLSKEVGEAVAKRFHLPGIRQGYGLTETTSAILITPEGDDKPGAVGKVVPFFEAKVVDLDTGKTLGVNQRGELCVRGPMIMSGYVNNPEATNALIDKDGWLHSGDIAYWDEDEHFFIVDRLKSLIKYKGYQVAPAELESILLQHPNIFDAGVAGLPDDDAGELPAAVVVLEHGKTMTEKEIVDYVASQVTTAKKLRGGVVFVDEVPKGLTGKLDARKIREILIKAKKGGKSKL
Sequence of Paired box protein Pax-8 (Q06710 whole entry): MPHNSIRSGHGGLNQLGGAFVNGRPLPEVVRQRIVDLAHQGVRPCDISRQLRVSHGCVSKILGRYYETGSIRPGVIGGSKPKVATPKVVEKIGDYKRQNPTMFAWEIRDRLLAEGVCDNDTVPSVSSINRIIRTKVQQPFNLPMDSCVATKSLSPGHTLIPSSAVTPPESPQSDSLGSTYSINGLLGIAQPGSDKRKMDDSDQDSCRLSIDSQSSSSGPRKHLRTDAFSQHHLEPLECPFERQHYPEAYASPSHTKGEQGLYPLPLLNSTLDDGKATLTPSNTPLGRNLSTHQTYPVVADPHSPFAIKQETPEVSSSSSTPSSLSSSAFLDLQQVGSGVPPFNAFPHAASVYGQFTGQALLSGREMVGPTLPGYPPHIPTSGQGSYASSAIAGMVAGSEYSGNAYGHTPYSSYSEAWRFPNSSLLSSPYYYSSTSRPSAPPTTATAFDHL

CC(=O)c1c(C)nn(CC(=O)NC2CCCN(Cc3ccc(CC(C)C)cc3)C2)c1C (stereo not given)
EC50 [1]: 1.19 µM (active)
EC50 [2]: > 112 µM (not active)
EC50 [3]: > 112 µM (not active)

Cn1c(S)nnc1-c1cccc2ccccc12
EC50 [1]: 0.841 µM (active)

CC(=O)C1=C(O)C(=O)N(Cc2ccccc2)C1c1ccc([N+](=O)[O-])cc1 (stereo not given)
EC50 [4]: 1.19 µM (active)

CC(=O)Nc1ccc(S(=O)(=O)Nc2nc3ccc(C)cc3s2)cc1
EC50 [4]: 3.76 µM (active)

O=C(Nc1ccccc1[N+](=O)[O-])C1COc2ccccc2O1 (stereo not given)
EC50 [5]: 6.61 µM (active)
EC50 [6]: 0.244 µM (active)
EC50 [7]: > 120 µM (not active)

O=C(NCC(=O)N(Cc1ccccc1)C(C(=O)NC1CCCCC1)c1ccco1)c1ccco1 (stereo not given)
IC50 [8]: 42.2 µM (inactive)

COC(=O)c1c(NC(=O)COC(=O)c2ccc(Cl)cc2[N+](=O)[O-])sc2c1CCCCC2
IC50 [9]: > 64.6 µM (inactive)
IC50 [10]: > 64.6 µM (inactive)

CCn1c(-c2ccccc2Cl)nn(CC(=O)Nc2ccccc2OC)c1=S
AC50 [11]: inconclusive

O=C(NCc1ccccc1)C1=C[C@H](c2ccccc2)C[C@H](OCc2ccc(CO)cc2)O1
EC50 [12]: > 53 µM (inactive)
EC50 [1]: 1.06 µM (active)
IC50 [13]: > 47.1 µM (inactive)

COc1ccc2sc(-c3ccc(S(C)(=O)=O)cc3)c(-c3ccc(C(N)=O)cc3)c2c1
IC50 [9]: 25.1 µM (inactive)
IC50 [10]: 11.5 µM (inactive)

Cc1nnsc1SCC(=O)O
AC50 [11]: inconclusive

NC(=O)c1cccc(Nc2nc(C(N)CCc3ccccc3)cs2)n1 (stereo not given)
IC50 [8]: 18.3 µM (active)

COc1ccccc1C(=O)N/N=C(\C)c1ccc(NC(=O)Cc2ccccc2)cc1
EC50 [5]: > 120 µM (not active)
EC50 [6]: > 120 µM (not active)
EC50 [7]: > 120 µM (not active)

Cc1cc(O)c(C(C)C)cc1C1(c2cc(C(C)C)c(O)cc2C)OC(=O)c2ccccc21
EC50 [14]: 2.11 µM (active)
EC50 [15]: > 60 µM (not active)
EC50 [16]: 1.24 µM (active)
IC50 [9]: > 64.6 µM (inactive)
AC50 [17]: 1.71 µM (active)
AC50 [18]: 3.98 µM (inconclusive)
AC50 [19]: 9.45 µM (active)
EC50 [20]: 3.87 µM (active)
AC50 [21]: 8.19 µM (active)
AC50 [22]: 18.8 µM (active)
IC50 [10]: > 64.6 µM (inactive)
EC50 [23]: > 150 µM (not active)
